Experimental data reported in publication PMC13114161 (Antibiotics, 2026).
Read-outs that look alike come from different tables or passages of the source.

What was measured:
Assay type in all cases: cell-based, Pseudomonas aeruginosa
P. aeruginosa ATCC 27853 = assay: MIC and levofloxacin potentiation (broth microdilution); details: ATCC 27853 parent strain (Table S1)
Experimental: Once synthesized, the three fluorinated EPI analogs (TXA11114, TXA11164 and TXA12027) were first assayed for their antibacterial activities against P. aeruginosa ATCC 27853. They had MICs of 100, >200 and 100 µg/mL, respectively (Table 1). […] Particularly, the inactivity of TXA11164 was surprising as the pKa values of both the amines are similar to that in TXA11114.
(§1) MIC assays for potentiation of antimicrobial activity against P. aeruginosa were performed as described previously.

[1] = test system: P. aeruginosa ATCC 27853 ompH mutants EPIR32, EPIR36, EPIR38; assay: microbe, parasite or virus in culture; details: Pseudomonas aeruginosa
Experimental: as §1

P. aeruginosa = assay: MIC potentiation of antimicrobial agents by EPIs; details: for Fold difference of antibiotic MIC + TXA01182 / MIC of antibiotic + TXA01182: TXA01182 at […]; for Fold difference of antibiotic MIC + TXA09155 / MIC of antibiotic + TXA09155: TXA09155 at […]; for Fold difference of antibiotic MIC + TXA11114 / MIC of antibiotic + TXA11114: TXA11114 at […];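 as to Fold difference of antibiotic MIC + TXA01182: TXA01182 tested at 6.25 µg/mL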;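 as to Fold difference of antibiotic MIC + TXA09155: TXA09155 tested at 6.25 µg/mL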; as to Fold difference of antibiotic MIC + TXA11114: TXA11114 at 6.25 µg/mL;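 as to MIC of antibiotic + TXA01182: TXA01182 tested at 6.25 µg/mL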;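 as to MIC of antibiotic + TXA09155: TXA09155 tested at 6.25 µg/mL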; as to MIC of antibiotic + TXA11114: TXA11114 at 6.25 µg/mL
Experimental: In contrast, the activities of gentamicin and imipenem were unchanged in the presence of TXA11114 under the conditions tested. Although gentamicin can be transported by the MexXY efflux system, the absence of potentiation in this assay is not sufficient to draw conclusions regarding MexXY inhibition or overall efflux specificity.
as §1

[2] = Pseudomonas aeruginosa, ATCC27853, read-out: MIC

NCC[C@H](O)C(=O)N[C@@H]1C[C@H](N)[C@@H](O[C@H]2O[C@H](CN)[C@@H](O)[C@H](O)[C@H]2O)[C@H](O)[C@H]1O[C@H]1O[C@H](CO)[C@@H](O)[C@H](N)[C@H]1O [AMK, amikacin]
MIC (P. aeruginosa ATCC 27853; [2]): 8 µg/mL | MIC ([1]; ATCC27853, EPIR32): 2 µg/mL | MIC ([1]; ATCC27853, EPIR36): 1 µg/mL | MIC ([1]; ATCC27853, EPIR38): 4 µg/mL

CC[C@H]1OC(=O)[C@H](C)[C@@H](O[C@H]2C[C@@](C)(OC)[C@@H](O)[C@H](C)O2)[C@H](C)[C@@H](O[C@@H]2O[C@H](C)C[C@H](N(C)C)[C@H]2O)[C@](C)(O)C[C@@H](C)CN(C)[C@H](C)[C@@H](O)[C@]1(C)O [AZM, azithromycin]
MIC (P. aeruginosa ATCC 27853): 64 µg/mL | MIC ([1]; ATCC27853, EPIR32): 32 µg/mL | MIC ([1]; ATCC27853, EPIR36): 16 µg/mL | MIC ([1]; ATCC27853, EPIR38): 64 µg/mL

C[C@H]1[C@H](NC(=O)/C(=N\OC(C)(C)C(=O)O)c2csc(N)n2)C(=O)N1S(=O)(=O)O [Aztreonam]
Fold difference of antibiotic MIC + TXA01182 (P. aeruginosa): 4 fold | MIC of antibiotic + TXA01182 (P. aeruginosa): 2 µg/mL | Fold difference of antibiotic MIC + TXA09155 (P. aeruginosa): 4 fold | MIC of antibiotic + TXA09155 (P. aeruginosa): 2 µg/mL | Fold difference of antibiotic MIC + TXA11114 (P. aeruginosa): 2 fold

CO/N=C(\C(=O)N[C@@H]1C(=O)N2C(C(=O)[O-])=C(C[n+]3cccc4c3CCC4)CS[C@H]12)c1csc(N)n1 [Cefpirome]
Fold difference of antibiotic MIC + TXA01182 (P. aeruginosa): 2 fold | Fold difference of antibiotic MIC + TXA09155 (P. aeruginosa): 8 fold | MIC of antibiotic + TXA09155 (P. aeruginosa): 1 µg/mL | Fold difference of antibiotic MIC + TXA11114 (P. aeruginosa): 4 fold | MIC of antibiotic + TXA11114 (P. aeruginosa): 2 µg/mL

CC(C)(O/N=C(\C(=O)N[C@@H]1C(=O)N2C(C(=O)[O-])=C(C[n+]3ccccc3)CS[C@H]12)c1csc(N)n1)C(=O)O [Ceftazidime, ceftazidime]
MIC (P. aeruginosa ATCC 27853): 2 µg/mL | MIC of antibiotic + TXA01182 (P. aeruginosa): 1 µg/mL | MIC of antibiotic + TXA11114 (P. aeruginosa): 0.5 µg/mL | MIC ([1]; ATCC27853, EPIR32): 0.25 µg/mL | MIC ([1]; ATCC27853, EPIR38): 2 µg/mL

Nc1nc(/C(=N/O)C(=O)N[C@@H]2C(=O)N3C(C(=O)O)=C(/C=C4\CCN([C@@H]5CCNC5)C4=O)CS[C@H]23)ns1 [Ceftobiprole]
Fold difference of antibiotic MIC + TXA01182 (P. aeruginosa): 1 fold | MIC of antibiotic + TXA01182 (P. aeruginosa): 8 µg/mL | Fold difference of antibiotic MIC + TXA09155 (P. aeruginosa): 8 fold | MIC of antibiotic + TXA09155 (P. aeruginosa): 1 µg/mL | Fold difference of antibiotic MIC + TXA11114 (P. aeruginosa): 4 fold | MIC of antibiotic + TXA11114 (P. aeruginosa): 2 µg/mL

C[C@H]1c2cccc(O)c2C(=O)C2=C(O)[C@]3(O)C(=O)C(C(N)=O)=C(O)[C@@H](N(C)C)[C@@H]3[C@@H](O)[C@@H]21 [Doxycycline, doxycycline]
MIC (P. aeruginosa ATCC 27853; [2]): 32 µg/mL | MIC of antibiotic + TXA01182 (P. aeruginosa): 2 µg/mL | MIC of antibiotic + TXA09155 (P. aeruginosa): 1 µg/mL | MIC of antibiotic + TXA11114 (P. aeruginosa): 4 µg/mL

CNC(C)C1CCC(N)C(OC2C(N)CC(N)C(OC3OCC(C)(O)C(NC)C3O)C2O)O1 (stereo not shown) [Gentamicin]
Fold difference of antibiotic MIC + TXA01182 (P. aeruginosa): 1 fold | MIC of antibiotic + TXA01182 (P. aeruginosa): 2 µg/mL | Fold difference of antibiotic MIC + TXA09155 (P. aeruginosa): 1 fold | MIC of antibiotic + TXA09155 (P. aeruginosa): 2 µg/mL | Fold difference of antibiotic MIC + TXA11114 (P. aeruginosa): 1 fold | MIC of antibiotic + TXA11114 (P. aeruginosa): 2 µg/mL | Fold difference of antibiotic MIC + TXA11114 (P. aeruginosa; listed as gentamicin): unchanged
